This note sets out measurements from patent US8361802B2, “Fluorescent ozone sensor” (University of Pittsburgh—Of the Commonwealth System of …, priority 2009, dated 2013).

Assay [1] is described as follows: Ozone detection in nasal fluid. As to conditions: ozone ~5 μM. How it is done:
FIG. 2D illustrates Ozone detection in nasal fluid, wherein Left Sample: 4, no ozone; Right Sample: 4, + ozone.
One embodiment of the present invention is a biomedical probe to detect ozone. Since ozone is believed to be much too reactive to reach and permeate the epithelial cells, ozone detection in the presence of various antioxidants that are found in the epithelial lining fluid was attempted. […] Nasal fluid was tested to more accurately mimic the epithelial lining fluid of the lung.
Ozone detection in human pleural fluid. Human pleural fluid (1.0 mL) was diluted in pH 7 buffer ([PO4^3−]=5 mM) (3.0 mL). Solution A (5.0 μL, [compound 4]final=12.5 μM) was added to the resulting human pleural fluid mixture, and the samples were exposed to ozone (˜5 μM) at 24° C. followed by 1 hour incubation at 37° C. before fluorescence measurement. The experiment was performed in triplicate with an illustration of one of the tests represented in FIG. 2D.

Assay [2] can be described thus: Ozone detection in ambient (outdoor) air. To be noted: 8 hours.
Protocol: In all cases, sensor 4=12.5 μM and all ozone assays were performed in 5:95 MeOH/pH 7 buffer. Solutions of senor 4 in 5:95 MeOH/pH 7 buffer were prepared and exposed to ambient air in various locations throughout a city on a hot, sunny day (˜32° C.) for 8 hours. A negative control was prepared in the same manner but incubated at 37° C. in a closed vial for 8 hours. […] Solutions of senor 4 ([4]final =12.5 μM) in 5:95 MeOH/pH 7 buffer ([PO4^3−]=5 mM) solution (4.0 mL) were prepared, and the samples were placed in high traffic outdoor areas for 8 hours. The samples were not exposed directly to sunlight. A negative control was prepared in the same manner but incubated at 37° C. in a closed vial for 8 hours. Following the 8 hour incubation period, the fluorescence of each sample was measured. Ozone detection in ambient air. Solution A (5.0 μL, [compound 4]final=12.5 μM) was added to a mixture of MeOH/pH 7 buffer ([PO4^3−]=5 mM) (5:95) (4.0 mL), and 4 samples were placed in 4 outdoor areas throughout University of Pittsburgh campus for 8 hours (high temperature=32.2° C.; AQI=43; PM2.5=64) on Jun. […] The samples were not exposed to direct sunlight. […] For each location, triplicate replicas were performed.

As to `C=CCCOc1cc2oc3cc(=O)c(Cl)cc-3c(-c3ccccc3CO)c2cc1Cl` [compound 4], the S/B is reported as 92 in assay [1] and 10-17 in assay [2] (5:95 MeOH/pH 7 buffer). Also, the “ozone level correlating to S/B, based on linear regression” value in assay [2] was 13-22 ppb.
